Results taken from patent publication US6602899B1, “β-D-5 thioxylose derivatives, preparation method and therapeutic use” (Fournier Industrie & Sante, priority 1999, dated 2003).

Tests used:
[1] = test system: venous thrombosis; test: venous thrombosis test (venous stasis under hypercoagulation, WESSLER technique, activated factor X); type: in vivo, Wistar male rats; conditions: rat; for inhibition in vivo at 5 mg/kg: iv, i.v. in PEG 400, 5 mg/kg, thrombosis induced 2 h after administration, read-out: Activity i.v. T = 2 h (percentage inhibition relative to thrombus weight with vehicle); for Activity p.o. T = 4 h (percentage inhibition of thrombus weight): thrombosis induced 4 h after administration; for Activity p.o. T = 8 h (percentage inhibition of thrombus weight): thrombosis induced 8 h after administration
Description: The test products are administered either orally (tubage) dissolved or suspended in PEG 400, or by intravenous injection dissolved in PEG 400. The concentration of the compounds is calculated so that the amount of solution absorbed is 2 ml/kg by oral administration and 1 ml/kg by intravenous injection. The compounds are generally administered intravenously at a dose of 5 mg/kg. If the test is performed after oral administration, the amount administered is calculated so as to correspond to about 2.10^−5 mol/kg. Thrombosis is induced at a time T (2 h, 4 h or 8 hours) after the administration of the product, and the thrombus formed is removed and weighed. To induce this thrombosis, a venous stasis is created under hypercoagulation according to the technique described by WESSLER (J. Applied Physiol. 1959, pp. 943-946), the hypercoagulating agent used being a solution of activated factor X (Xa) having a concentration of 7.5 nKat/kg, supplied by Biogenic. The results obtained, expressed as the percentage inhibition calculated relative to the weight of a thrombus obtained in the absence of active principle in the vehicle, are collated in Table I below. The activity of the test compounds was checked at different doses after they had been administered either orally (p.o.) or intravenously (i.v.). The thrombosis was induced 4 hours or 8 hours after oral administration of the compound and 2 hours after intravenous administration.

[2] = test system: venous thrombus; conditions: administered orally, doses of 6 mg/kg and above; cited from earlier work
[3] = solubility in injectable solvents; type: physicochemical; conditions: especially water and PEG 400

| Compound | inhibition in vivo at 5 mg/kg [1] [%] | further results |
| --- | --- | --- |
| C=COC(=O)O[C@@H]1[C@@H](OC(=O)OC=C)[C@H](OC(=O)OC=C)CS[C@H]1Oc1ccc2c(C)cc(=O)oc2c1 [Ex. 8, 4-Methyl-2-oxo-2H-1-benzopyran-7-yl 2,3,4-tri-O-(ethenyloxycarbonyl)-5-thio-β-D-xylopyranoside] | 65 |  |
| C=CCC(=O)O[C@@H]1[C@@H](OC(=O)CC=C)[C@H](OC(=O)CC=C)CS[C@H]1Oc1ccc2c(C)cc(=O)oc2c1 [Ex. 7, 4-Methyl-2-oxo-2H-1-benzopyran-7-yl 2,3,4-tri-O-(2-propenylcarbonyl)-5-thio-β-D-xylopyranoside] | 66 |  |
| COC(=O)O[C@@H]1[C@@H](OC(=O)OC)[C@H](OC(=O)OC)CS[C@H]1Oc1ccc2c(C)cc(=O)oc2c1 [Ex. 1, 4-Methyl-2-oxo-2H-1-benzopyran-7-yl 2,3,4-tri-O-methoxycarbonyl-5-thio-β-D-xylopyranoside] | 84 | Activity p.o. T = 4 h (percentage inhibition of thrombus weight) ([1]; p.o. in PEG 400, 9 mg/kg): 87%; Activity p.o. T = 8 h (percentage inhibition of thrombus weight) ([1]; p.o. in PEG 400, 9 mg/kg): 66% |
| CCCOC(=O)O[C@@H]1[C@@H](OC(=O)OCCC)[C@H](OC(=O)OCCC)CS[C@H]1Oc1ccc2c(C)cc(=O)oc2c1 [Ex. 3, 4-Methyl-2-oxo-2H-1-benzopyran-7-yl 2,3,4-tri-O-propoxycarbonyl-5-thio-β-D-xylopyranoside] | 71 |  |
| COCCOC(=O)O[C@@H]1[C@@H](OC(=O)OCCOC)[C@H](OC(=O)OCCOC)CS[C@H]1Oc1ccc2c(C)cc(=O)oc2c1 [Ex. 6, 4-Methyl-2-oxo-2H-1-benzopyran-7-yl 2,3,4-tri-O-(2-methoxyethoxycarbonyl)-5-thio-β-D-xylopyranoside] | 52 |  |
| CCCCOC(=O)O[C@@H]1[C@@H](OC(=O)OCCCC)[C@H](OC(=O)OCCCC)CS[C@H]1Oc1ccc2c(C)cc(=O)oc2c1 [Ex. 4, 4-Methyl-2-oxo-2H-1-benzopyran-7-yl 2,3,4-tri-O-butoxycarbonyl-5-thio-β-D-xylopyranoside] | 60 |  |
| Cc1cc(=O)oc2cc(O[C@@H]3SC[C@@H](O)[C@H](O)[C@H]3O)ccc12 [D, 4-methyl-2-oxo-2H-1-benzopyran-7-yl 5-thio-β-D-xylopyranoside, reference compound] |  | reduction of the formation of a venous thrombus [2]: more than 80%; Activity p.o. T = 4 h (percentage inhibition of thrombus weight) ([1]; p.o. in PEG 400, 6 mg/kg): 84%; Activity p.o. T = 8 h (percentage inhibition of thrombus weight) ([1]; p.o. in PEG 400, 6 mg/kg): 15%; solubility in injectable solvents [3]: insoluble |
| Cc1cc(=O)oc2cc(O[C@@H]3SC[C@@H](OC(=O)OCCO)[C@H](OC(=O)OCCO)[C@H]3OC(=O)OCCO)ccc12 [Ex. 9, 4-Methyl-2-oxo-2H-1-benzopyran-7-yl 2,3,4-tri-O-(2-hydroxyethoxycarbonyl)-5-thio-β-D-xylopyranoside] | 27 | Activity p.o. T = 4 h (percentage inhibition of thrombus weight) ([1]; p.o. in PEG 400, 11 mg/kg): 93%; Activity p.o. T = 8 h (percentage inhibition of thrombus weight) ([1]; p.o. in PEG 400, 11 mg/kg): 29% |
| CCOC(=O)O[C@@H]1[C@@H](OC(=O)OCC)[C@H](OC(=O)OCC)CS[C@H]1Oc1ccc2c(C)cc(=O)oc2c1 [Ex. 2, 4-Methyl-2-oxo-2H-1-benzopyran-7-yl 2,3,4-tri-O-ethoxycarbonyl-5-thio-β-D-xylopyranoside] | 73 |  |
| Cc1cc(=O)oc2cc(O[C@@H]3SC[C@@H](OC(=O)OCC(C)C)[C@H](OC(=O)OCC(C)C)[C@H]3OC(=O)OCC(C)C)ccc12 [Ex. 5, 4-Methyl-2-oxo-2H-1-benzopyran-7-yl 2,3,4-tri-O-(2-methylpropoxycarbonyl)-5-thio-β-D-xylopyranoside] | 65 |  |
